Results reported in PubChem BioAssay AID463204 (Broad Institute, 2010).
The source made the active and inactive calls.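 Rule for the calls: active = AC50 no more than ten times the top concentration tested, that is within one log above it; inconclusive = flat curve fit with activity between 30% and 70%, or invalid poor fit; inactive = AC50 beyond ten times the top tested dose.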

Tested on: S. cerevisiae Mot1-301 ts growth rescue, BacTiter-Glo ATP luminescence
Experiment: growth rescue of Mot1-301 ts yeast, confirmation, SUMOylation pathway inhibitor project, whole organism, S. cerevisiae, Mot1-301 ts mutant, luminescence, dose retest (AID 463204);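 note: growth at restrictive 38.5 degrees C of Mot1-301 OY566 strain; actives raise luminescence by restoring growth of the ts mutant at high temperature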

CCn1cc(C(=O)N(C)c2ccc(OC)cc2OC)c2cc(OC)c(OC)cc2c1=O
AC50: > 42 µM (inactive)
